Experimental data: publication PMC10060354, “Discovery of a small molecule ligand of FRS2 that inhibits invasion and tumor growth” (Cellular Oncology, 2022)
Values after ≈ are worked out from the molar mass of the structure shown. Read-outs that look alike come from different tables or passages of the source.

Legend:
[1] = Solubility at the concentration required for the biophysical assays; format: physicochemical; settings: 5% DMSO
GB1-FRS2_PTB:FGFR_PEP = target: T1, GB1-FRS2_PTB:FGFR_PEP (Homo sapiens, UniProt Q8WU20); test: nanoDSF competition assay with the FGFR peptide; format: binding; settings: PTB domain:FGFR peptide 1:5; 500 μM compound
T1 construct: FRS2-PTB 11-140aa; 6xHis (N); made in house; host or cells: E. coli BL21 (DE3) for the protein
T1 sequence (Q8WU20 11-140): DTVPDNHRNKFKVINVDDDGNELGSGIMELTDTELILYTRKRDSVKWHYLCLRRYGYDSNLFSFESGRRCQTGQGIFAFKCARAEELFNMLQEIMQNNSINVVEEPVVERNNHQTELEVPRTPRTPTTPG
Description: Purified FRS2_PTB or GB1_FRS2_PTB protein tagged with 6 × Histidine residues and the B1 immunoglobulin binding domain of the streptococcal protein G (GB1) were diluted in the protein buffer (100 mM sodium phosphate, 50 mM NaCl, 0.5 mM EDTA, 50 mM arginine, 1 mM TCEP, pH 7.0) to 30 μM, GB-1 to 40 μM. FGFR_PEP, compounds or paracetamol (PARA) as negative control were dissolved at 1 mM in the protein buffer supplemented with 10% DMSO. Compound and protein were mixed at 1:1 volume ratio yielding a final concentration of 15 μM and 20 μM for FRS2_PTB/GB1_FRS2_PTB and GB1, respectively, as well as 500 μM for FGFR_PEP or compounds. The mixture was incubated for 15 min. Each compound was measured in triplicates. Protein controls were measured in six replicates in the beginning. The quality of the screen was assessed by the Z-factor. nanoDSF validation studies were performed on a Prometheus® system in high sensitivity capillaries. Samples were heated with 1 °C/min from 20 to 95 °C. Each compound was measured in triplicates. GB1-FRS2_PTB and GB1 were diluted in the protein buffer (100 mM sodium phosphate, 50 mM NaCl, 0.5 mM EDTA, 50 mM arginine, 1 mM TCEP, pH 7.0) to 30 μM. Compounds 3.3, 3.4, 3.18 as well as the 3.18 analogues were dissolved in 100% DMSO at 50 or 100 mM and further diluted to 1 mM with a final […]. FGFR_PEP was dissolved at 1 mM in the protein buffer supplemented with 10% DMSO. Compound and protein were mixed at 1:1 volume ratio yielding final concentrations of 15 μM protein and 500 μM for the compounds. FGFR_PEP was measured against both GB1-FRS2_PTB and GB1, all other compounds only against GB1-FRS2_PTB. The mixture was incubated for 15 min before measurement. The data was analyzed for both the ratio of signals at 330 and 350 nm and at 350 nm alone. For the competition assays, the PTB domain and the FGFR peptide were mixed at a 1:5 ratio, and ligand competition was assayed in the presence of 500 μM compound.

[2] = Microsomal metabolic stability; format: in vitro ADME; settings: human, pooled liver microsomes; for half-life at 1 µM: pH 7.4, liver microsomes, read-out: t1/2; for microsomal CLint at 1 µM: pH 7.4, read-out: Metabolic stability - Intrinsic clearance (CI)
Description: Pooled liver microsomes were purchased from Xenotech (H0500) and were stored according to manufacturer’s instructions prior to use. […] A minus co-factor control incubation was included for each compound tested where 0.1 M phosphate buffer pH 7.4 was added instead of NADPH. Two control compounds were included with each species. All incubations were performed singularly for each shortlisted hit. Each compound was incubated for 0, 5, 15, 30 and 45 min. The minus co-factor was incubated for 45 min only. The reactions were stopped by transferring incubate into acetonitrile at the appropriate time points in a 1:3 ratio. The termination plates were centrifuged at 3000 rpm for 20 min at 4 °C to precipitate the protein. Following protein precipitation, the supernatant were combined in cassette of up to 4 compounds, internal standard for MS analysis was added and samples were analyzed using LC–MS/MS. From a plot of In peak area ratio (compound peak area/internal standard peak area) against time, the gradient of the lines were determined. Subsequently, half-life and intrinsic clearance were calculated using the following equations. Eliminationrateconstant(k)=(-gradient)Half-life(t1/2)(min)=0.693/kIntrinsicclearance(CLint)(μl/min/mgprotein)=Vx0.693/t1/2 where V = Incubation volume (µl) / Microsomal protein (mg)

[3] = Cell viability (cytotoxicity, MTT) using HepG2; format: cell-based, human; settings: human, HepG2 cells, 72 h, summary sheet, read-out: MTT (AC50) Conc at which 50% of maximum efficacy is reached
Description: (§1) HepG2 human hepatocellular carcinoma cells were plated on 96-well tissue culture polystyrene plates for 24 h prior to dosing of the cells. The shortlisted hits were diluted in DMSO and serial dilutions are made 1% DMSO in growth media. Compounds at 8 concentrations in triplicate was then incubated for 72 h. Appropriate blanks and controls were run alongside the assay. One h prior to the end of the incubation period, the cells were loaded with MTT [yellow; 3-(4,5-dimethyl-2-thiazolyl)-2,5-diphenyl-2H-tetrazolium bromide], the plates were dried and re-solubilized using DMSO. The plates were then scanned at 570 nm using a plate reader.
(§2) The minimum effective concentration was determined from the lowest concentration whose mean value exceeds the significance level, provided either a clear dose–response relationship was observed, or at least two consecutive concentration points were above the significance level.

[4] = system: HepG2 human hepatocellular carcinoma cells; test: Cell viability (cytotoxicity, MTT) using HepG2; format: cell-based; settings: for MEC: 72h, 3 replicas, NR = No response (Summary sheet); for MTT (MEC) Minimum effective concentration: 72 h, summary sheet
Description: as §1, §2

DAOY cells = test: Spheroid invasion assay (SIA), bFGF-induced collagen I invasion; format: cell-based, human; settings: for functional activity in SIA (result in words): DAOY, bFGF-induced, 1, 5 and 10 µM
Description: 1000—2500 cells/well in 100 μl were seeded in 96 well Corning® Spheroid microplate (CLS4520, Sigma-Aldrich) or in cell-repellent 96 well microplate (650,790, Greiner Bio-one). SIA and analysis was performed as described before. In brief: After spheroid formation (24 – 72 h after seeding), 70 µl medium was removed and replaced with the collagen mixture (2.5 mg/ml Pure Col Collagen I (Advanced Biomatrix)), DMEM 1x (from 10 × stock, Sigma, D2429) and 0.4% Sodium bicarbonate (Sigma, S8761)), resulting in a final collagen concentration of 1.75 mg/ml. Embedded spheroids were stimulated with bFGF (100 ng/ml if not otherwise stated), HGF (30 ng /ml) or EGF (20 ng/ml) and distance of invaded cells quantified 24 – 48 h after embedding. Compounds and BGJ398 were added in Dimethylsulfoxid (DMSO) and corresponding DMSO concentrations were used in control samples.

[5] = CaCo-2 permeability (bi-directional); settings: human
Description: Caco-2 cells obtained from the ATCC were used between passage numbers 40—60. Cells were seeded onto Millipore Multiscreen Transwell plates at 1 × 10^5 cells/cm^2. The cells were cultured in DMEM and media was changed every two or three days. On day 20, the permeability study was performed. […] Cells were then incubated with HBSS at the desired pH in both apical and basolateral compartments for 40 min to stabilize physiological parameters.
The fluorescent integrity marker lucifer yellow was also included in the dosing solution. Analytical standards were prepared from test compound DMSO dilutions and transferred to buffer, maintaining a 1% v/v DMSO concentration.
For assessment of A-B permeability, HBSS was removed from the apical compartment and replaced with test compound dosing solution. The apical compartment insert was then placed into a companion plate containing fresh buffer (containing 1% v/v DMSO). For assessment of B-A permeability, HBSS was removed from the companion plate and replaced with test compound dosing solution. Fresh buffer (containing 1% v/v DMSO) was added to the apical compartment insert, which was then placed into the companion plate.
Compound permeability was assessed in duplicate. Compounds of known permeability characteristics were run as controls on each assay plate.
Test and control compounds were quantified by LC–MS/MS cassette analysis using a 7-point calibration with appropriate dilution of the samples. The starting concentration (C0) was determined from the dosing solution and the experimental recovery calculated from C0 and both apical and basolateral compartment concentrations. The integrity of the monolayer throughout the experiment was checked by monitoring lucifer yellow permeation using fluorimetric analysis.
The permeability coefficient (Papp) for each compound was calculated from the following equation: Papp=dQ/dtC0×A where dQ/dt was the rate of permeation of the drug across the cells, C0 was the donor compartment concentration at time zero and A was the area of the cell monolayer. C0 was obtained from analysis of the dosing solution.
Efflux ratio (ER) was calculated from mean A-B and B-A data. This was derived from: ER=Papp(B-A)Papp(A-B)

[6] = Semi-thermodynamic solubility; format: physicochemical; settings: for solubility / solubility thermodynamic: PBS, aqueous buffer, thermodynamic from solid; for solubility: Room Temp, Overnight, LC-MSMS; for solubility thermodynamic: overnight; for solubility thermodynamic / Solubility (class in words): summary sheet
Description: In vitro ADME-T assays were performed by Cyprotex (Cyprotex Discovery, Cheshire, UK). […] The solution was agitated at ambient temperature overnight. The solutions were then centrifuged for 30 min at 3000 rpm at RT. The supernatant was removed and centrifuged for a further 30 min under the same conditions. An aliquot of the resulting supernatant was diluted in 50% methanol in water (containing an internal standard for MS analysis) prior to analysis by LC–MS/MS. […] These stocks were diluted in 50% methanol in water (containing an internal standard for MS analysis) prior to analysis by LC–MS/MS. The solubility of the shortlisted hits was calculated from a linear or quadratic fit of the standard curve.

[7] = Caco-2, Mean Papp A-B, Caco-2, summary sheet
[8] = Caco-2, Mean Papp B-A, Caco-2, summary sheet
[9] = Caco-2, pH 7.4, Mean % Recovery A2B, HBSS/HBSS, pH 7.4/7.4
[10] = Caco-2, pH 7.4, Mean % Recovery B2A, HBSS/HBSS, pH 7.4/7.4
[11] = Caco-2, pH 7.4, Mean Papp A2B, HBSS/HBSS, pH 7.4/7.4
[12] = Caco-2, pH 7.4, Mean Papp B2A, HBSS/HBSS, pH 7.4/7.4
[13] = Caco-2, pH 7.4, Papp A2B Replicate 1, HBSS/HBSS, pH 7.4/7.4
[14] = Caco-2, pH 7.4, Papp B2A Replicate 1, HBSS/HBSS, pH 7.4/7.4
[15] = Caco-2, pH 7.4, Papp B2A Replicate 2, HBSS/HBSS, pH 7.4/7.4
[16] = read-out: Solubility Replicate 1
[17] = read-out: Solubility Replicate 3
[18] = read-out: Solubility Replicate 4

| half-life at 1 µM [2] [min] | microsomal CLint at 1 µM [2] [µL/min/mg] | efflux ratio at 120 min, 10 μM ([5]; Caco-2) | Papp A→B at 120 min, 10 μM [5, 7] [×10⁻⁶ cm/s] | Papp B→A at 120 min, 10 μM [5, 8] [×10⁻⁶ cm/s] | efflux ratio at 120 min, 10 μM ([5]; Caco-2, pH 7.4) | recovery at 120 min, 10 µM [5, 9] [%] | recovery at 120 min, 10 µM [5, 10] [%] | Papp A→B at 120 min, 10 μM [5, 11] [×10⁻⁶ cm/s] | Papp B→A at 120 min, 10 μM [5, 12] [×10⁻⁶ cm/s] | Papp A→B at 120 min, 10 μM [5, 13] [×10⁻⁶ cm/s] | Papp B→A at 120 min, 10 μM [5, 14] [×10⁻⁶ cm/s] | Papp B→A at 120 min, 10 μM [5, 15] [×10⁻⁶ cm/s] | solubility ([6]; read-out: Mean Solubility) [µM] | solubility [6, 16] [µM] | solubility [6, 17] [µM] | Compound | AC50 at 72 h [3] [µM] | MEC [4] [µM] | MTT (MEC) Minimum effective concentration [4] [µM] | functional activity in SIA (result in words) (DAOY cells) | further results |
| --- | --- | --- | --- | --- | --- | --- | --- | --- | --- | --- | --- | --- | --- | --- | --- | --- | --- | --- | --- | --- | --- |
| – | – | – | – | – | – | – | – | – | – | – | – | – | – | – | – | O=[N+]([O-])c1c(Cl)cc(O)c2c1C1C=CCC1C(c1ccc(Br)cc1)N2 (stereo not drawn) [Compound 2] | – | – | – | – | solubility for biophysical assays (result in words) [1]: soluble in 5% DMSO; nanoDSF competition with FGFR peptide (result in words) (GB1-FRS2_PTB:FGFR_PEP): negative shift in compound-mixed samples |
| 2.83 | 490 | 36.9 | 0.3 | 11.1 | 36.9 | 30 | 8.82 | 0.3 | 11.1 | 0.3 | 11.5 | 10.6 | 2.18 (≈ 0.649 µg/mL) | 1.95 (≈ 0.581 µg/mL) | 2.79 (≈ 0.831 µg/mL) | Oc1cc(Cl)cc2c1NC(c1ccccc1)C1CC=CC21 (stereo not drawn) [Compound 11] | 19.6 | 14.2 | 14.2 | reduced effect compared to its parent compound 3.18 at all concentrations | solubility [6, 18]: 1.79 µM (≈ 0.533 µg/mL); solubility thermodynamic [6]: 2.18 µM (≈ 0.649 µg/mL); Solubility (class in words) [6]: Sligthly |
| 0.552 | 2510 | 4 | 1.11 | 4.46 | 4 | 6.59 | 50.6 | 1.11 | 4.46 | 1.12 | 5.88 | 3.04 | 1.25 (≈ 0.443 µg/mL) | 1.26 (≈ 0.447 µg/mL) | 1.21 (≈ 0.429 µg/mL) | CC1(C)Cc2cccc(OCC(=O)Nc3nc4ccccc4s3)c2O1 [Compound E25] | 58.7 | 42.6 | 42.6 | comparable inhibition of invasion | EC50 (DAOY cells; Homo sapiens, Daoy, DAOY cells, n = 3 technical replicas, read-out: EC50 for the inhibition of bFGF-induced collagen I invasion): 7.51 µM; Papp A→B at 120 min, 10 μM ([5]; Caco-2, pH 7.4, Papp A2B Replicate 2, HBSS/HBSS, pH 7.4/7.4): 1.11 ×10⁻⁶ cm/s; solubility ([6]; read-out: Solubility Replicate 2): 1.12 µM (≈ 0.397 µg/mL); solubility [6, 18]: 1.4 µM (≈ 0.496 µg/mL); solubility thermodynamic [6]: 1.25 µM (≈ 0.443 µg/mL); Solubility (class in words) [6]: Sligthly |
